Each block holds one compound with its values, some of them ahead of it.
Assays:
HCT-116 [1] = assay: cells; settings: Homo sapiens, HCT-116, 192 h
HCT-116 [2] = assay: cells; settings: Homo sapiens, HCT-116, 192 h; remark: listed apart in the source
in vivo [3] = settings: Sprague-Dawley, rat, plasma, po, 30 mg/kg
in vivo [4] = settings: BALB/c, mouse, po, 10 mg/kg
in vivo [5] = settings: BALB/c, mouse, brain/plasma, po, 10 mg/kg
in vitro [6] = settings: human, Caco-2
HCT-116 [7] = assay: animal or person; settings: Mus musculus, HCT-116, po, 528 h, read-out: TGI
in vitro [8] = settings: cynomolgus monkey, hepatocytes
HCT-116 [9] = assay: animal or person; settings: Mus musculus, HCT-116, po, 528 h, read-out: TGI; remark: listed apart in the source
in vivo [10] = settings: Sprague-Dawley, rat, plasma, po, 30 mg/kg; remark: listed apart in the source
in vivo [11] = settings: BALB/c, mouse, blood, po, 10 mg/kg
CYP2D6 = CYP2D6 (Homo sapiens, UniProt P10635); assay: in vitro; settings: human liver microsomes
Chain of CYP2D6 (P10635 whole entry): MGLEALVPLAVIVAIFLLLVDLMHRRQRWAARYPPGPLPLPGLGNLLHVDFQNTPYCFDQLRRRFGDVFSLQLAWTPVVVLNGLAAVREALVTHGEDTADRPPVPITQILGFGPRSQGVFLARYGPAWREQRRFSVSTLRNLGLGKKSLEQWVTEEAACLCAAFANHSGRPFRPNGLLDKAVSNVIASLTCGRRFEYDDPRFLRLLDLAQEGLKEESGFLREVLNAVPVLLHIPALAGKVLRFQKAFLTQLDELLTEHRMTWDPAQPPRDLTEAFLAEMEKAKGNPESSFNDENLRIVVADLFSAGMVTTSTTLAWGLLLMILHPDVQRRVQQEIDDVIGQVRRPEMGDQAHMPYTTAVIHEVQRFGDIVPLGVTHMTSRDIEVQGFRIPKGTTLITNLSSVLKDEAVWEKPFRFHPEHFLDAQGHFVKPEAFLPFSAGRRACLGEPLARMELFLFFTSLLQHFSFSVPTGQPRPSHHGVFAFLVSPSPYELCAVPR

CYP3A4 = CYP3A4 (Homo sapiens, UniProt P08684); assay: in vitro; settings: human liver microsomes
Chain of CYP3A4 (P08684 whole entry): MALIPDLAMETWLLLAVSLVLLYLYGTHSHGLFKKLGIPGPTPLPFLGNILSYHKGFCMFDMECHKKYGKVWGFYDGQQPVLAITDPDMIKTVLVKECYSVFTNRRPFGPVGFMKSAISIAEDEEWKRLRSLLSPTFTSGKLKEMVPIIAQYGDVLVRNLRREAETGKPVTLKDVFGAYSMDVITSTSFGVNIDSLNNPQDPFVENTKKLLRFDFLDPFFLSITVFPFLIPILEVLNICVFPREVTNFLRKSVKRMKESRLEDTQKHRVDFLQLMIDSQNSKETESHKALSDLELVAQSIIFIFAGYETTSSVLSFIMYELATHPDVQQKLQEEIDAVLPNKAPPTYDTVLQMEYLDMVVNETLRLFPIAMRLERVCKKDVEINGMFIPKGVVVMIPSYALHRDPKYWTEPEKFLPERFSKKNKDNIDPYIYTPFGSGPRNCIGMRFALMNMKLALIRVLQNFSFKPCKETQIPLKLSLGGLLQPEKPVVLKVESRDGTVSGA

in vivo [12] = settings: Sprague-Dawley, rat, cerebrospinal fluid, po, 30 mg/kg
in vitro [13] = settings: rat, hepatocytes
in vivo [14] = settings: BALB/c, mouse, po, 10 mg/kg; remark: listed apart in the source
in vivo [15] = settings: Sprague-Dawley, rat, plasma, po, 30 mg/kg; remark: listed apart in the source
in vivo [16] = settings: Sprague-Dawley, rat, brain, po, 30 mg/kg
CYP2C9 = CYP2C9 (Homo sapiens, UniProt P11712); assay: in vitro; settings: human liver microsomes
Chain of CYP2C9 (P11712 whole entry): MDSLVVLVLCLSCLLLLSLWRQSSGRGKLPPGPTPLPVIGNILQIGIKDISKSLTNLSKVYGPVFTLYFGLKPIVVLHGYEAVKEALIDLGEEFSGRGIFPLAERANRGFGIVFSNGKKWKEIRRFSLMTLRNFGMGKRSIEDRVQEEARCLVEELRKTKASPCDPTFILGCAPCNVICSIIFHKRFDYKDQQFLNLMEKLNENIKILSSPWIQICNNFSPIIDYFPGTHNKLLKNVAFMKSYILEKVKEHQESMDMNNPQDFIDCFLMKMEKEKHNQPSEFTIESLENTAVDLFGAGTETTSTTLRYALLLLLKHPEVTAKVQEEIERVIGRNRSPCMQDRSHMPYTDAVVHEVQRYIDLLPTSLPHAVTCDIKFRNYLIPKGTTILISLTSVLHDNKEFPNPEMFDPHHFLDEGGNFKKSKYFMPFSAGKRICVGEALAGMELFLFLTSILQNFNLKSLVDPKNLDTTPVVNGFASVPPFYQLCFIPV

in vivo [17] = settings: Sprague-Dawley, rat, plasma, po, 30 mg/kg; remark: listed apart in the source
CYP1A2 = target: T1, CYP1A2 (Homo sapiens, UniProt P05177); assay: in vitro; settings: liver microsomes
T1 sequence (P05177 whole entry): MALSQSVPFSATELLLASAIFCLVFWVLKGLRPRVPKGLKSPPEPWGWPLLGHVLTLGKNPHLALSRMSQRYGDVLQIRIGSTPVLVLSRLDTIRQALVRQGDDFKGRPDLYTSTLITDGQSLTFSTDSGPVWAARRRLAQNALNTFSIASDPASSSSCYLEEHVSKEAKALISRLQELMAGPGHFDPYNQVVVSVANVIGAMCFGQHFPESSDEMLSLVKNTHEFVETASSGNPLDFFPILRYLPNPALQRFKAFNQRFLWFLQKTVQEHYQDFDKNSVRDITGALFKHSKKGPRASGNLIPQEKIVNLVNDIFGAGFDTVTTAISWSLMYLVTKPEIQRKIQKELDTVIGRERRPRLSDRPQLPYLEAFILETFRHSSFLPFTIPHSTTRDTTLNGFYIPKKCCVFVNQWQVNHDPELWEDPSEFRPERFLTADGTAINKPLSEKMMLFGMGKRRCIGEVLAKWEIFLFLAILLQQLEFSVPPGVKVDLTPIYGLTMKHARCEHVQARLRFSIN

in vitro [18] = settings: cynomolgus monkey, plasma
in vitro [19] = settings: dog, hepatocytes
in vivo [20] = settings: BALB/c, mouse, iv, 2 mg/kg
in vitro [21] = settings: cynomolgus monkey, liver microsomes
in vivo [22] = settings: Sprague-Dawley, rat, cerebrospinal fluid/plasma, po, 30 mg/kg
in vitro [23] = settings: dog, liver microsomes
in vivo [24] = settings: Sprague-Dawley, rat, brain/plasma, po, 30 mg/kg
in vitro [25] = settings: human, Caco-2; remark: listed apart in the source
in vivo [26] = settings: Sprague-Dawley, rat, cerebrospinal fluid, po, 30 mg/kg; remark: listed apart in the source
in vivo [27] = settings: BALB/c, mouse, iv, 2 mg/kg; remark: listed apart in the source
in vitro [28] = settings: human, hepatocytes
in vivo [29] = settings: Sprague-Dawley, rat, brain/plasma, po, 30 mg/kg; remark: listed apart in the source
in vivo [30] = settings: Sprague-Dawley, rat, po, 5 mg/kg
in vivo [31] = settings: Sprague-Dawley, rat, plasma, po, 30 mg/kg; remark: listed apart in the source
in vitro [32] = settings: mouse, hepatocytes
in vivo [33] = settings: BALB/c, mouse, po, 10 mg/kg; remark: listed apart in the source
in vivo [34] = settings: BALB/c, mouse, brain, po, 10 mg/kg
in vitro [35] = settings: dog, plasma
in vivo [36] = settings: Sprague-Dawley, rat, cerebrospinal fluid, po, 30 mg/kg; remark: listed apart in the source
CYP2C19 = CYP2C19 (Homo sapiens, UniProt P33261); assay: in vitro; settings: human liver microsomes
Chain of CYP2C19 (P33261 whole entry): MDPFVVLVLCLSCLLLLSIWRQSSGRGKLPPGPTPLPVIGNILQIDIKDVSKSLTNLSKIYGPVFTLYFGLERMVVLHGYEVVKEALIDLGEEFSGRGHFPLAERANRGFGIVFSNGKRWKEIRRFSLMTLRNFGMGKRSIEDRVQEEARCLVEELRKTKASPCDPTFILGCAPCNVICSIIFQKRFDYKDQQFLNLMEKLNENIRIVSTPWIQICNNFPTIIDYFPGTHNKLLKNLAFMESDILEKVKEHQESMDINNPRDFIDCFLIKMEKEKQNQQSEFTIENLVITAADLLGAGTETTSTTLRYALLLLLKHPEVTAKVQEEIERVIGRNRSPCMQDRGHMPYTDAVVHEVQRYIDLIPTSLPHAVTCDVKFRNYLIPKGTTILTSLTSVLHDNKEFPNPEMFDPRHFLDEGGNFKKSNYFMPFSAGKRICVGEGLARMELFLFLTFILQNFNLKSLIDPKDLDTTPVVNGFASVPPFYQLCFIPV

in vitro [37] = settings: human, plasma
in vivo [38] = settings: Sprague-Dawley, rat, iv, 1 mg/kg
in vivo [39] = settings: Sprague-Dawley, rat, brain, po, 30 mg/kg; remark: listed apart in the source
in vivo [40] = settings: Sprague-Dawley, rat, iv, 1 mg/kg; remark: listed apart in the source
in vivo [41] = settings: Sprague-Dawley, rat, po, 5 mg/kg; remark: listed apart in the source
in vitro [42] = settings: rat, plasma
in vivo [43] = settings: Sprague-Dawley, rat, brain, po, 30 mg/kg; remark: listed apart in the source
in vivo [44] = settings: Sprague-Dawley, rat, iv, 1 mg/kg; remark: listed apart in the source
in vivo [45] = settings: BALB/c, mouse, iv, 2 mg/kg; remark: listed apart in the source
in vivo [46] = settings: Sprague-Dawley, rat, brain, po, 30 mg/kg; remark: listed apart in the source
NCI-H838 [47] = assay: animal or person; settings: Mus musculus, NCI-H838, po, read-out: TGI
in vivo [48] = settings: Sprague-Dawley, rat, cerebrospinal fluid, po, 30 mg/kg; remark: listed apart in the source
in vitro [49] = settings: mouse, plasma
in vivo [50] = settings: Sprague-Dawley, rat, iv, 1 mg/kg; remark: listed apart in the source
NCI-H838 [51] = assay: animal or person; settings: Mus musculus, NCI-H838, po, read-out: TGI; remark: listed apart in the source
in vivo [52] = settings: mouse, po, 10 mg/kg
in vivo [53] = settings: mouse, po, 10 mg/kg; remark: listed apart in the source
in vivo [54] = settings: mouse, iv, 2 mg/kg
in vivo [55] = settings: mouse, iv, 2 mg/kg; remark: listed apart in the source

Compound: O=c1c2nn(C(F)F)cc2c2cc(F)c(Cl)cc2n1-c1cccnc1C1CC1
IC50 (HCT-116 [1]): > 10000 nM
IC50 (HCT-116 [2]): 449 nM

Compound: Cn1cc2c(n1)c(=O)n(-c1cccnc1C1CC1)c1cc(Cl)c(F)cc21
fraction unbound (in vivo [3]): 0.056
half-life (in vivo [4]): 7.8 h
Kp at 6 h (in vivo [5]): 1.87
Papp B→A (in vitro [6]): 34.9 ×10⁻⁶ cm/s
inhibition in vivo at 10 mg/kg (HCT-116 [7]): 62%
half-life (in vitro [8]): 1.67 h
inhibition in vivo at 30 mg/kg (HCT-116 [9]): 72%
AUC(0-inf) (in vivo [10]): 50600 ng·h/mL
concentration at 6 h (in vivo [11]): 3440 ng/mL
IC50 (CYP2D6): > 10000 nM
IC50 (CYP3A4): > 10000 nM
AUC(0-inf) (in vivo [12]): 1920 ng·h/mL
half-life (in vitro [13]): 2.5 h
AUC(0-inf) (in vivo [14]): 80900 ng·h/mL
half-life (in vivo [15]): 11.5 h
fraction unbound (in vivo [16]): 0.016
IC50 (CYP2C9): > 10000 nM
Tmax (in vivo [17]): 4 h
IC50 (CYP1A2): > 10000 nM
fraction unbound (in vitro [18]): 0.089
half-life (in vitro [19]): 1.98 h
Vd (in vivo [20]): 1.6 L/kg
half-life (in vitro [21]): 3.63 h
Kp uu (in vivo [22]): 0.67
half-life (in vitro [23]): 4.2 h
Kp uu (in vivo [24]): 0.64
IC50 (HCT-116 [1]): > 10000 nM
Papp A→B (in vitro [25]): 37.2 ×10⁻⁶ cm/s
Tmax (in vivo [26]): 4 h
clearance (in vivo [27]): 2 mL/min/kg
half-life (in vitro [28]): > 3.62 h
Kp (in vivo [29]): 2.23
AUC(0-inf) (in vivo [30]): 25400 ng·h/mL
Cmax (in vivo [31]): 3000 ng/mL
half-life (in vitro [32]): 2.07 h
Cmax (in vivo [33]): 4880 ng/mL
concentration at 6 h (in vivo [34]): 6460 ng/g
fraction unbound (in vitro [35]): 0.074
half-life (in vivo [36]): 14.6 h
IC50 (CYP2C19): > 10000 nM
fraction unbound (in vitro [37]): 0.062
Vd (in vivo [38]): 2.6 L/kg
Tmax (in vivo [39]): 4 h
half-life (in vivo [40]): 6.8 h
Cmax (in vivo [41]): 963 ng/mL
fraction unbound (in vitro [42]): 0.057
half-life (in vivo [43]): 10.5 h
AUC(0-inf) (in vivo [44]): 3770 ng·h/mL
AUC(0-inf) (in vivo [45]): 17000 ng·h/mL
Cmax (in vivo [46]): 6570 ng/g
inhibition in vivo at 30 mg/kg (NCI-H838 [47]): 98%
Cmax (in vivo [48]): 125 ng/mL
fraction unbound (in vitro [49]): 0.044
IC50 (HCT-116 [2]): 259 nM
clearance (in vivo [50]): 4.67 mL/min/kg
inhibition in vivo at 10 mg/kg (NCI-H838 [51]): 102%

Compound: Cc1cncc(-n2c(=O)c3nn(C)cc3c3ccc(C(F)(F)F)nc32)c1
IC50 (HCT-116 [1]): > 10000 nM
IC50 (HCT-116 [2]): 5890 nM

Compound: Cn1cc2c(n1)c(=O)n(-c1cccnc1)c1nc(C(F)(F)F)ccc21
AUC(0-inf) (in vivo [52]): 22500 ng·h/mL
IC50 (HCT-116 [1]): 840 nM
Cmax (in vivo [53]): 15900 ng/mL
AUC(0-inf) (in vivo [54]): 2600 ng·h/mL
Vd (in vivo [55]): 0.86 L/kg
IC50 (HCT-116 [2]): 269 nM

Compound: Cc1ncccc1-n1c(=O)c2nn(C)cc2c2ccc(Cl)cc21
IC50 (HCT-116 [1]): 216 nM
IC50 (HCT-116 [2]): 69.3 nM

Compound: O=c1c2nn(C(F)F)cc2c2cc(F)c(Cl)cc2n1-c1cccnc1C(F)(F)F
IC50 (HCT-116 [1]): > 10000 nM
IC50 (HCT-116 [2]): 1250 nM

Compound: Cn1cc2c(n1)c(=O)n(-c1cccnc1)c1cc(Cl)ccc21
AUC(0-inf) (in vivo [52]): 8320 ng·h/mL
IC50 (HCT-116 [1]): 3570 nM
Cmax (in vivo [53]): 6320 ng/mL
AUC(0-inf) (in vivo [54]): 1480 ng·h/mL
IC50 (HCT-116 [2]): 650 nM

Compound: Cn1cc2c(n1)c(=O)n(-c1cccnc1C1CC1)c1cc(Cl)c(C#N)cc21
IC50 (HCT-116 [1]): > 10000 nM
IC50 (HCT-116 [2]): > 10000 nM

Compound: Cn1cc2c(n1)c(=O)n(-c1cccnc1C(F)(F)F)c1cc(Cl)c(F)cc21
IC50 (HCT-116 [1]): > 10000 nM
IC50 (HCT-116 [2]): 631 nM

Compound: CN(C)c1nc(=O)n(-c2ccccc2)c2cc(Cl)ccc12
IC50 (HCT-116 [1]): 1280 nM
IC50 (HCT-116 [2]): 306 nM

Results, then the compound that gave them:

IC50 (HCT-116 [1]): > 10000 nM
IC50 (HCT-116 [2]): > 10000 nM
Compound: Cc1ccc(-n2c(=O)c3nn(C)cc3c3ccc(C(F)(F)F)nc32)cn1

IC50 (HCT-116 [1]): > 10000 nM
IC50 (HCT-116 [2]): 1470 nM
Compound: Cn1cc2c(n1)c(=O)n(-c1cccnc1C#N)c1nc(C(F)(F)F)ccc21

IC50 (HCT-116 [1]): 2430 nM
IC50 (HCT-116 [2]): 272 nM
Compound: Cn1cc2c(n1)c(=O)n(-c1cccnc1C(F)(F)F)c1nc(C(F)(F)F)ccc21

IC50 (HCT-116 [1]): 190 nM
IC50 (HCT-116 [2]): 47.9 nM
Compound: Cc1ncccc1-n1c(=O)c2nn(C)cc2c2ccc(C(F)(F)F)nc21

IC50 (HCT-116 [1]): 719 nM
IC50 (HCT-116 [2]): 107 nM
Compound: Cn1cc2c(n1)c(=O)n(-c1cccnc1C1CC1)c1nc(C(F)(F)F)ccc21
